Data reported in patent US20260355196A1, “INHIBITORS AND DEGRADERS OF PIP4K PROTEIN” (Larkspur Biosciences, Inc., priority 2023, published 2026).

target: T1, PIP4K2C (Homo sapiens, UniProt Q8TBX8); assay: HiBiT PIP4K2C degradation assay in MOLT-4 cells (endogenous PIP4K2C C-terminally tagged with HiBiT); format: cell-based; set-up: untagged in primary human PBMCs and monocyte-derived dendritic cells; conditions: 6 hours of incubation time, rather than 24 hours; MOLT-4, top concentration 10 micromolar; read-out: HiBIT-degradation MOLT4 PIP4k2C DC50 (6 hours, marked *)
T1 sequence (Q8TBX8 1-421): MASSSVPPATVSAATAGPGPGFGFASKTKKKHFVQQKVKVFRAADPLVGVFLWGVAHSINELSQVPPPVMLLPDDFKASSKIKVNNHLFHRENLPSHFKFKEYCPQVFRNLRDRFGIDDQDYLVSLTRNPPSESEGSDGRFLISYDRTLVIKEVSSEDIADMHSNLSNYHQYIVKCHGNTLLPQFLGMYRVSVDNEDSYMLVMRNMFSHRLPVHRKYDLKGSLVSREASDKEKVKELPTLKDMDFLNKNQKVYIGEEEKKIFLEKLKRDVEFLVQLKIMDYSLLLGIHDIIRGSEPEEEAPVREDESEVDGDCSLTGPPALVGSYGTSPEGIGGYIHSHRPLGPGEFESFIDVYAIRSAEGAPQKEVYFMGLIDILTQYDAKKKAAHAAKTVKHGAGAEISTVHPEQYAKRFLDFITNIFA
Outline: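 MOLT-4 knock-in line, HiBiT on PIP4K2C C-terminus; 22,500 cells/well; 10-pt 3-fold titration from 10 micromolar, n=2; 24 h or 6 h, 37 C, 5% CO2; Nano-Glo HiBiT lytic luminescence; DC50 via Hill equation.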

DC50, < 500 nM:
O=C1CC[C@H](Nc2ccc(N3CCC(N4CCC(C(=O)N[C@H]5CC[C@H](Nc6ncc(F)c(-c7cccc(N8CCCOC8=O)c7)n6)CC5)CC4)CC3)c(F)c2)C(=O)N1 [Compound 542, 1′-(4-(((S)-2,6-dioxopiperidin-3-yl)amino)-2-fluorophenyl)-N-((trans)-4-((5-fluoro-4-(3-(2-oxo-1,3-oxazinan-3-yl)phenyl)pyrimidin-2-yl)amino)cyclohexyl)-[1,4′-bipiperidine]-4-carboxamide]
O=C1CC[C@@H](Nc2ccc(N3CCC(N4CCC(C(=O)N[C@H]5CC[C@H](Nc6ncc(F)c(-c7cccc(N8CCCOC8=O)c7)n6)CC5)CC4)CC3)c(F)c2)C(=O)N1 [Compound 543, 1′-(4-(((R)-2,6-dioxopiperidin-3-yl)amino)-2-fluorophenyl)-N-((trans)-4-((5-fluoro-4-(3-(2-oxo-1,3-oxazinan-3-yl)phenyl)pyrimidin-2-yl)amino)cyclohexyl)-[1,4′-bipiperidine]-4-carboxamide]
O=C1CC[C@@H](Nc2ccc(N3CCN([C@H]4CC[C@H](C(=O)N[C@H]5CC[C@H](Nc6ncc(F)c(-c7cccc(-c8ccc[nH]c8=O)c7)n6)CC5)CC4)CC3)c(F)c2)C(=O)N1 [Compound 544, trans-4-(4-(4-(((R)-2,6-dioxopiperidin-3-yl)amino)-2-fluorophenyl)piperazin-1-yl)-N-((trans)-4-((5-fluoro-4-(3-(2-oxo-1,2-dihydropyridin-3-yl)phenyl)pyrimidin-2-yl)amino)cyclohexyl)cyclohexane-1-carboxamide]
O=C1CCC(Nc2ccc(C3CCN([C@H]4CC[C@H](NC(=O)[C@H]5CC[C@H](Nc6ncc(F)c(-c7cccc(N8CCOCC8=O)n7)n6)CC5)CC4)CC3)c(F)c2)C(=O)N1 (stereo partly drawn) [Compound 545, trans-N-(trans-4-(4-(4-((2,6-dioxopiperidin-3-yl)amino)-2-fluorophenyl)piperidin-1-yl)cyclohexyl)-4-((5-fluoro-4-(6-(3-oxomorpholino)pyridin-2-yl)pyrimidin-2-yl)amino)cyclohexane-1-carboxamide]
O=C1CCC(Nc2ccc(C3CCN([C@H]4CC[C@H](NC(=O)[C@H]5CC[C@H](Nc6ncc(F)c(-c7cccc(N8CCCCC8=O)n7)n6)CC5)CC4)CC3)c(F)c2)C(=O)N1 (stereo partly drawn) [Compound 546, trans-N-(trans-4-(4-(4-((2,6-dioxopiperidin-3-yl)amino)-2-fluorophenyl)piperidin-1-yl)cyclohexyl)-4-((5-fluoro-4-(6-(2-oxopiperidin-1-yl)pyridin-2-yl)pyrimidin-2-yl)amino)cyclohexane-1-carboxamide]
O=C1CCC(Nc2ccc(C3CCN([C@H]4CC[C@H](NC(=O)[C@H]5CC[C@H](Nc6ncc(F)c(-c7cccc(N8CCOCC8=O)c7)n6)CC5)CC4)CC3)c(F)c2)C(=O)N1 (stereo partly drawn) [Compound 547, trans-N-(trans-4-(4-(4-((2,6-dioxopiperidin-3-yl)amino)-2-fluorophenyl)piperidin-1-yl)cyclohexyl)-4-((5-fluoro-4-(3-(3-oxomorpholino)phenyl)pyrimidin-2-yl)amino)cyclohexane-1-carboxamide]
O=C1CCC(Nc2ccc(C3CCN([C@H]4CC[C@H](NC(=O)[C@H]5CC[C@H](Nc6ncc(F)c(-c7ccnc(C8(O)CCC8)c7)n6)CC5)CC4)CC3)c(F)c2)C(=O)N1 (stereo partly drawn) [Compound 548, trans-N-(trans-4-(4-(4-((2,6-dioxopiperidin-3-yl)amino)-2-fluorophenyl)piperidin-1-yl)cyclohexyl)-4-((5-fluoro-4-(2-(1-hydroxycyclobutyl)pyridin-4-yl)pyrimidin-2-yl)amino)cyclohexane-1-carboxamide]
O=C1CCC(Nc2ccc(C3CCN([C@H]4CC[C@H](NC(=O)[C@H]5CC[C@H](Nc6ncc(F)c(-c7ccnc(N8CCCCC8=O)c7)n6)CC5)CC4)CC3)c(F)c2)C(=O)N1 (stereo partly drawn) [Compound 549, trans-N-(trans-4-(4-(4-((2,6-dioxopiperidin-3-yl)amino)-2-fluorophenyl)piperidin-1-yl)cyclohexyl)-4-((5-fluoro-4-(2-(2-oxopiperidin-1-yl)pyridin-4-yl)pyrimidin-2-yl)amino)cyclohexane-1-carboxamide]
O=C1CCC(Nc2ccc(C3CCN([C@H]4CC[C@H](NC(=O)[C@H]5CC[C@H](Nc6ncc(F)c(-c7ccnc(N8CCCOC8=O)c7)n6)CC5)CC4)CC3)c(F)c2)C(=O)N1 (stereo partly drawn) [Compound 550, trans-N-((trans)-4-(4-(4-((2,6-dioxopiperidin-3-yl)amino)-2-fluorophenyl)piperidin-1-yl)cyclohexyl)-4-((5-fluoro-4-(2-(2-oxo-1,3-oxazinan-3-yl)pyridin-4-yl)pyrimidin-2-yl)amino)cyclohexane-1-carboxamide]
Cc1ccc(=O)n(-c2cccc(-c3nc(N[C@H]4CC[C@H](C(=O)N[C@H]5CC[C@H](N6CCC(c7ccc(NC8CCC(=O)NC8=O)cc7F)CC6)CC5)CC4)ncc3F)c2)c1 (stereo partly drawn) [Compound 551, trans-N-(trans-4-(4-(4-((2,6-dioxopiperidin-3-yl)amino)-2-fluorophenyl)piperidin-1-yl)cyclohexyl)-4-((5-fluoro-4-(3-(5-methyl-2-oxopyridin-1 (2H)-yl)phenyl)pyrimidin-2-yl)amino)cyclohexane-1-carboxamide]
O=C1CCC(Nc2ccc(C3CCN(CC4CCN(C(=O)[C@H]5CC[C@H](Nc6ncc(F)c(-c7cccc(N8CCOCC8=O)c7)n6)CC5)CC4)CC3)c(F)c2)C(=O)N1 (stereo partly drawn) [Compound 552, trans-3-((3-fluoro-4-(1-((1-(4-((5-fluoro-4-(3-(3-oxomorpholino)phenyl)pyrimidin-2-yl)amino)cyclohexane-1-carbonyl)piperidin-4-yl)methyl)piperidin-4-yl)phenyl)amino)piperidine-2,6-dione]
O=C1CCC(Nc2ccc(N3CCN(CC4CCN(C(=O)[C@H]5CC[C@H](Nc6ncc(F)c(-c7cccc(N8CCOCC8=O)c7)n6)CC5)CC4)CC3)c(F)c2)C(=O)N1 (stereo partly drawn) [Compound 553, trans-3-((3-fluoro-4-(4-((1-(4-((5-fluoro-4-(3-(3-oxomorpholino)phenyl)pyrimidin-2-yl)amino)cyclohexane-1-carbonyl)piperidin-4-yl)methyl)piperazin-1-yl)phenyl)amino)piperidine-2,6-dione]
O=C1CCC(Nc2ccc(C3CCN(CC4CCN(C(=O)[C@H]5CC[C@H](Nc6ncc(F)c(-c7cccc(C8CC8)c7)n6)CC5)CC4)CC3)c(F)c2)C(=O)N1 (stereo partly drawn) [Compound 554, trans-3-((4-(1-((1-(4-((4-(3-cyclopropylphenyl)-5-fluoropyrimidin-2-yl)amino)cyclohexane-1-carbonyl)piperidin-4-yl)methyl)piperidin-4-yl)-3-fluorophenyl)amino)piperidine-2,6-dione]
O=C1CCC(Nc2ccc(N3CCN(CC4CCN(C(=O)[C@H]5CC[C@H](Nc6ncc(F)c(-c7cccc(C8CC8)c7)n6)CC5)CC4)CC3)c(F)c2)C(=O)N1 (stereo partly drawn) [Compound 555, trans-3-[4-[4-[[1-[4-[[4-(3-cyclopropylphenyl)-5-fluoro-pyrimidin-2-yl]amino]cyclohexanecarbonyl]-4-piperidyl]methyl]piperazin-1-yl]-3-fluoro-anilino]piperidine-2,6-dione]
O=C1CCC(Nc2ccc(C3CCN([C@H]4CC[C@H](C(=O)N[C@H]5CC[C@H](Nc6ncc(F)c(-c7cccc(N8CCCCC8)c7)n6)CC5)CC4)CC3)c(F)c2)C(=O)N1 (stereo partly drawn) [Compound 556, trans-(1r,4R)-4-(4-(4-((2,6-dioxopiperidin-3-yl)amino)-2-fluorophenyl)piperidin-1-yl)-N-((1r,4R)-4-((5-fluoro-4-(3-(piperidin-1-yl)phenyl)pyrimidin-2-yl)amino)cyclohexyl)cyclohexane-1-carboxamide]
O=C1CCC(Nc2ccc(N3CCN([C@H]4CC[C@H](NC(=O)[C@H]5CC[C@H](Nc6ncc(F)c(-c7cccc(C8CC8)c7)n6)CC5)CC4)CC3)c(F)c2)C(=O)N1 (stereo partly drawn) [Compound 557, trans-(1r,4R)-4-((4-(3-cyclopropylphenyl)-5-fluoropyrimidin-2-yl)amino)-N-((1r,4R)-4-(4-(4-((2,6-dioxopiperidin-3-yl)amino)-2-fluorophenyl)piperazin-1-yl)cyclohexyl)cyclohexane-1-carboxamide]
O=C1CCC(Nc2ccc(C3CCN([C@H]4CC[C@H](C(=O)N[C@H]5CC[C@H](Nc6ncc(F)c(-c7cccc(C8CC8)c7)n6)CC5)CC4)CC3)c(F)c2)C(=O)N1 (stereo partly drawn) [Compound 558, trans-(1r,4R)—N-((1r,4R)-4-((4-(3-cyclopropylphenyl)-5-fluoropyrimidin-2-yl)amino)cyclohexyl)-4-(4-(4-((2,6-dioxopiperidin-3-yl)amino)-2-fluorophenyl)piperidin-1-yl)cyclohexane-1-carboxamide]
